Experiments:
human ES cells = assay: Seeding of individualized human ES cells in 96-well plates; type: cell-based; settings: similar to HA-100 but at 10-fold lower concentration
[1] = tested on: Rho-associated kinase (ROCK); settings: cited from earlier work

## Cc1cncc2cccc(S(=O)(=O)N3CCCNC[C@@H]3C)c12 [Clone H-1152, (S)-(+)-2-Methyl-1-[(4-methyl-5-isoquinolinyl)sulfonyl]homopiperazine]
Human ES cells
  seeding of individualized human ES cells: very efficient seeding
[1]
  potency relative to HA-100: approximately ten-fold

From patent US10947499B2, “Selection of stem cell clones with defined differentiation capabilities” (Research Development Foundation, priority 2009, dated 2021)
